From US20200060276A1, “THIAZOLE COMPOUND AND HERBICIDE” (OAT Agrio Co., Ltd., priority 2017, published 2020)

What was measured:
Assay type in all cases: in vivo
[1] = test system: Echinochloa crus-galli (L.) P. Beauv. var. formosensis Ohwi; test: Test for Herbicidal Effect in Flooding Treatment (#1), ECHDG; conditions: flooding treatment at seeding, dose 2 kg/ha, visual observation on day 21
Method in brief: (§1)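 Flooded soil in cups was seeded 24 h after flooding, then treated with compound in acetone diluted with Tween 80-containing water, dropped onto the water surface at 2 kg/ha. After growth in a glasshouse, growth inhibition was scored visually on day 21 on a 0 (<10%) to 5 (≥90% or complete withering) scale.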

[2] = test system: Scirpus juncoides; test: Test for Herbicidal Effect in Flooding Treatment (#1), SCIJU; conditions: flooding treatment at seeding, dose 2 kg/ha, visual observation on day 21
Method in brief: as §1

[3] = test system: Cyperus microiria; test: Test for Herbicidal Effect in Flooding Treatment (#1), CYMIC; conditions: flooding treatment at seeding, dose 2 kg/ha, visual observation on day 21
Method in brief: as §1

[4] = test system: Echinochloa crus-galli (L.) P. Beauv. var. formosensis Ohwi; test: Test for Herbicidal Effect in Flooding Treatment (#2), ECHDG at 2-2.5 leaf stage; conditions: for ECHDG (2-2.5L) #2 herbicidal effect (growth inhibition grade): flooding treatment at 2-2.5 leaf stage, dose 0.2 kg/ha, visual observation on day 21; for inhibition at 200 g/ha: Echinochloa crus-galli, 504 h, flooding treatment (#2), ECHDG at 2-2.5 leaf stage, dose of 0.2 kg/ha, day 21, visual observation, read-out: growth inhibition effect
Method in brief: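 Scoring is a visual 0–5 scale of growth inhibition (0 below 10%, 5 at 90% or more or full withering), taken 21 days after treatment in a glasshouse. Dose was 0.2 kg/ha, applied as acetone/Tween 80 aqueous solution onto flooded soil once seedlings reached the 2–2.5 leaf stage.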

[5] = test system: Digitaria ciliaris; test: Test for Herbicidal Effect in Soil Treatment (#3); conditions: 504 h, dose of 2 kg/ha, day 21, visual observation, read-out: growth inhibition effect
Excerpt: 0: Growth inhibition effect is less than 10%. 1: Growth inhibition effect is equal to or greater than 10%, and less than 30%. 2; Growth inhibition effect is equal to or greater than 30%, and less than 50%. 3: Growth inhibition effect equal to or greater than 50%, and less than 70%. 4: Growth inhibition effect is equal to or greater than 70%, and less than 90%. 5: Growth inhibition effect is equal to or greater than 90%, or complete withering is achieved. (#3) Test for Herbicidal Effect in Soil Treatment: Styrol cups each having an opening diameter of 8 cm (about 52 cm^2) were respectively filled with soil (45 ml) which had been passed through a sieve (2 mm). Water (about 115 ml) was added. Thereafter, Digitaria ciliaris was seeded. Each of the compounds of the present invention was dissolved in acetone, and the obtained product was then diluted with water containing Tween 80°. Each of the resultant chemical solutions was dropped on the entire surface of an associated one of treatment sections, so that each section was treated with 1 ml of the respective chemical solution (a dose of 2 kg/ha). After the treatment, the plants were grown in a glasshouse. On day 21, a survey was conducted on the herbicidal activity by visual observation, and evaluation was made according to the following criteria. The herbicidal activity of the following comparative compounds A and B (the compounds disclosed Japanese Unexamined Patent Publication No. 2003-096059) were evaluated.

[6] = test system: Monochoria vaginalis; test: Test for Herbicidal Effect in Flooding Treatment (#1), MONVA; conditions: flooding treatment at seeding, dose 2 kg/ha, visual observation on day 21
Method in brief: as §1

Compound | ECHDG #1 herbicidal effect (growth inhibition grade) [1] | SCIJU #1 herbicidal effect (growth inhibition grade) [2] | CYMIC #1 herbicidal effect (growth inhibition grade) [3] | ECHDG (2-2.5L) #2 herbicidal effect (growth inhibition grade) [4] | inhibition at 2000 g/ha [5] [%] | inhibition at 200 g/ha [4] [%] | MONVA #1 herbicidal effect (growth inhibition grade) [6]
CCOc1c(F)cccc1CS(=O)(=O)c1ncc(Cl)s1 [Compound 1C-9] | 5 (Growth inhibition effect is equal to or greater than 90%, or complete withering is achieved) | 5 (Growth inhibition effect is equal to or greater than 90%, or complete withering is achieved) | 5 (Growth inhibition effect is equal to or greater than 90%, or complete withering is achieved) | 5 (Growth inhibition effect is equal to or greater than 90%, or complete withering is achieved) | ≥ 50 |  | 
O=S(=O)(Cc1c(Cl)cccc1OCC(F)(F)F)c1ncc(Br)s1 [Compound 1C-161, 5-bromo-2-{[2-(2,2,2-trifluoroethoxy)-6-chlorophenyl][methanesulfonyl]}-1,3-thiazole] | 5 (Growth inhibition effect is equal to or greater than 90%, or complete withering is achieved) | 5 (Growth inhibition effect is equal to or greater than 90%, or complete withering is achieved) |  | 5 (Growth inhibition effect is equal to or greater than 90%, or complete withering is achieved) | ≥ 50 |  | 
O=S(=O)(Cc1ccccc1F)c1ncc(Cl)s1 [comparative compound A, reference compound] |  |  |  |  | 30 to 50 | 10 to 30 | 
O=S(=O)(Cc1ccccc1Cl)c1ncc(Cl)s1 [comparative compound B, reference compound] |  |  |  |  | 30 to 50 | 30 to 50 | 
CCOc1c(F)cc(CS(=O)(=O)c2ncc(Cl)s2)cc1Cl [Compound 1C-105] | 5 (Growth inhibition effect is equal to or greater than 90%, or complete withering is achieved) | 5 (Growth inhibition effect is equal to or greater than 90%, or complete withering is achieved) | 5 (Growth inhibition effect is equal to or greater than 90%, or complete withering is achieved) | 2 (Growth inhibition effect is equal to or greater than 30%, and less than 50%) |  |  | 5 (Growth inhibition effect is equal to or greater than 90%, or complete withering is achieved)
COc1ccc(CS(=O)(=O)c2ncc(Cl)s2)c(F)c1 [Compound 1C-88] | 5 (Growth inhibition effect is equal to or greater than 90%, or complete withering is achieved) | 5 (Growth inhibition effect is equal to or greater than 90%, or complete withering is achieved) | 5 (Growth inhibition effect is equal to or greater than 90%, or complete withering is achieved) | 4 (Growth inhibition effect is equal to or greater than 70%, and less than 90%) |  |  | 5 (Growth inhibition effect is equal to or greater than 90%, or complete withering is achieved)
CCOc1ccc(CS(=O)(=O)c2ncc(Cl)s2)c(C)c1 [Compound 1C-93] | 5 (Growth inhibition effect is equal to or greater than 90%, or complete withering is achieved) | 5 (Growth inhibition effect is equal to or greater than 90%, or complete withering is achieved) | 5 (Growth inhibition effect is equal to or greater than 90%, or complete withering is achieved) | 5 (Growth inhibition effect is equal to or greater than 90%, or complete withering is achieved) |  |  | 5 (Growth inhibition effect is equal to or greater than 90%, or complete withering is achieved)
CCOc1cc(CS(=O)(=O)c2ncc(Cl)s2)ccc1Cl [Compound 1C-77] | 5 (Growth inhibition effect is equal to or greater than 90%, or complete withering is achieved) | 5 (Growth inhibition effect is equal to or greater than 90%, or complete withering is achieved) | 5 (Growth inhibition effect is equal to or greater than 90%, or complete withering is achieved) | 3 (Growth inhibition effect equal to or greater than 50%, and less than 70%) |  |  | 5 (Growth inhibition effect is equal to or greater than 90%, or complete withering is achieved)
CCOc1cccc(CS(=O)(=O)c2ncc(Cl)s2)c1F [Compound 1C-75] | 5 (Growth inhibition effect is equal to or greater than 90%, or complete withering is achieved) | 5 (Growth inhibition effect is equal to or greater than 90%, or complete withering is achieved) | 5 (Growth inhibition effect is equal to or greater than 90%, or complete withering is achieved) | 4 (Growth inhibition effect is equal to or greater than 70%, and less than 90%) |  |  | 5 (Growth inhibition effect is equal to or greater than 90%, or complete withering is achieved)
CCOc1c(Cl)cc(Cl)cc1CS(=O)(=O)c1ncc(Cl)s1 [Compound 1C-23] | 5 (Growth inhibition effect is equal to or greater than 90%, or complete withering is achieved) | 5 (Growth inhibition effect is equal to or greater than 90%, or complete withering is achieved) | 5 (Growth inhibition effect is equal to or greater than 90%, or complete withering is achieved) | 3 (Growth inhibition effect equal to or greater than 50%, and less than 70%) |  |  | 5 (Growth inhibition effect is equal to or greater than 90%, or complete withering is achieved)
COc1ccc(Cl)c(CS(=O)(=O)c2ncc(Cl)s2)c1 [Compound 1C-70] | 5 (Growth inhibition effect is equal to or greater than 90%, or complete withering is achieved) | 5 (Growth inhibition effect is equal to or greater than 90%, or complete withering is achieved) | 5 (Growth inhibition effect is equal to or greater than 90%, or complete withering is achieved) | 4 (Growth inhibition effect is equal to or greater than 70%, and less than 90%) |  |  | 5 (Growth inhibition effect is equal to or greater than 90%, or complete withering is achieved)
O=S(=O)(Cc1c(F)cc(OCCC(F)(F)F)cc1F)c1ncc(Cl)s1 [Compound 1C-117] | 5 (Growth inhibition effect is equal to or greater than 90%, or complete withering is achieved) | 5 (Growth inhibition effect is equal to or greater than 90%, or complete withering is achieved) | 5 (Growth inhibition effect is equal to or greater than 90%, or complete withering is achieved) | 4 (Growth inhibition effect is equal to or greater than 70%, and less than 90%) |  |  | 5 (Growth inhibition effect is equal to or greater than 90%, or complete withering is achieved)
O=S(=O)(Cc1c(F)cccc1OC(F)F)c1ncc(Cl)s1 [Compound 1C-41, 5-chloro-2-{[2-(difluoromethoxy)-6-fluorophenyl][methanesulfonyl]}-1,3-thiazole] | 5 (Growth inhibition effect is equal to or greater than 90%, or complete withering is achieved) | 5 (Growth inhibition effect is equal to or greater than 90%, or complete withering is achieved) |  | 5 (Growth inhibition effect is equal to or greater than 90%, or complete withering is achieved) | ≥ 90 | ≥ 90 | 5 (Growth inhibition effect is equal to or greater than 90%, or complete withering is achieved)
